In US20250339812A1, “ELECTROCHEMICAL DIRECT AIR CAPTURE OF CARBON DIOXIDE USING REVERSIBLE REDOX-ACTIVE MATERIAL” (Massachusetts Institute of Technology, priority 2022, published 2025):
Read-outs that look alike come from different tables or passages of the source.

Experiments:
[1] = pKa of the NR/NRH equilibrium; type: physicochemical
Source text: After basification, a carbon dioxide rich gas stream was introduced to saturate and consequently acidify the solution.

[2] = Cyclic voltammetry redox durability of NR (100 cycles); conditions: after 100 cyclic voltammetry cycles
Source text: The electrochemistry of the NR aqueous solution was examined by CV at various pH levels between 6 and 12 (FIG. 2A).

[3] = for peak intensity degradation: nitrogen control
Source text: FIG. 5C is a UV-vis spectra for the oxygen sensitivity test.
FIG. 5D is a UV-vis spectra for the control experiment under nitrogen.
FIG. 5E is a UV-vis spectra for the stability test under carbon dioxide.
FIG. 5F is a UV-vis spectra for the stability test under air.
The factors contributing to the 455 nm peak degradation were examined, including decomposition, reoxidation, precipitation, and polymerization.
A third set of UV-vis absorption measurements […], this time on solutions contacted with carbon dioxide, was carried out. […] The final set of UV-vis absorption experiments in FIG. 5F was carried out using solutions bubbled with ambient air.

| Structure (SMILES) | pKa [1] | decay in the peak current [2] | decomposition, reoxidation or polymerization products by NMR studies ([3]; NRH2 solutions) | sensitivity to oxygen ([3]; UV-vis absorption spectroscopy, 50 mM NRH2 in 1 M NA and 0.5 M KCl in water) | intensities of the 455 nm peak ([3]; bubbled with ambient air, 30 min and 2 h contact) | degradation of peak intensity at 455 nm ([3]; contacted with carbon dioxide, after a day) | peak intensity at 455 nm ([3]; contacting pure oxygen, 2 h) | peak intensity degradation ([3]; after 24 h) | peak intensity degradation ([3]; after a week) | peak intensity of NRH2 (455 nm) lowered by ([3]; oxygen atmosphere, a day) | peak intensity of NRH2 (455 nm) lowered by ([3]; sealed under oxygen atmosphere after 24 h bubbling, a week) |
| --- | --- | --- | --- | --- | --- | --- | --- | --- | --- | --- | --- |
| Cc1cc2nc3ccc(N(C)C)cc3nc2cc1N.Cl [NR, neutral red] | 6.8 | no significant decay |  |  |  |  |  |  |  |  |  |
| Cc1cc2c(cc1N)Nc1cc(N(C)C)ccc1N2 [NRH2, leuco-neutral red] |  |  | No major decomposition, reoxidation, or polymerization products | insensitive to oxygen | the same | no significant degradation | maintained | 33% | 53% | 42% | 52% |
